From patent publication US20240408093A1, “HETEROBIFUNCTIONAL COMPOUNDS AND THEIR USE IN TREATING DISEASE” (HALDA THERAPEUTICS OPCO, INC., priority 2022, published 2024)
Where two headings read alike, the source gives them in different places.

Experiments:
BTK = molecular target: T1, BTK (Homo sapiens, UniProt Q06187); assay: Release of effector protein ligand from heterobifunctional compounds, BTK; type: biochemical; conditions: detected A1-7
T1 construct: BTK (amino acids 387-659)
Method: Exemplary heterobifunctional compounds were evaluated for the ability to release an effector protein ligand in the presence of KRAS G12C, BTK, or EGFR T790M L858R target proteins.
Samples for mass spectrometry for KRAS G12C, BTK, and EGFR T790M L858R were prepared as described above for the intact mass spectrometry target engagement experiment, respectively, except rather than flash-freezing, 20 μL of sample was quenched with 50 μL of 100% acetonitrile. As well, a buffer-only control was used to detect latent release of effector protein ligand analyte. Internal standard (IS) solution consisted of 200 ng/mL propranolol and 50 ng/mL diclofenac in methanol:water 1:1 (v/v). A 4-point calibration curve (calibration standard (CS)) consisting of each analyte was made at final concentrations of 3 nM, 30 nM, 300 nM, and 3000 nM. Unknown samples were diluted such that the unknown analyte concentration was in the linear range of the calibration curve.
Samples for all proteins were prepared and analyzed from the following:
Samples were further analyzed with AB Sciex Triple Quad 5500 system coupled with Shimadzu Prominence HPLC.

[1] = molecular target: T2, EGFR T790M, L858R (amino acids 669-1011) (Homo sapiens, UniProt P00533, L858R/T790M); assay: KdELECT binding assay, EGFR T790M, L858R
T2 construct: purchased Eurofins Discovery (KdELECT); host or cells: mammalian cells (HEK-293)
T2 sequence (P00533 669-1011 T790M/L858R): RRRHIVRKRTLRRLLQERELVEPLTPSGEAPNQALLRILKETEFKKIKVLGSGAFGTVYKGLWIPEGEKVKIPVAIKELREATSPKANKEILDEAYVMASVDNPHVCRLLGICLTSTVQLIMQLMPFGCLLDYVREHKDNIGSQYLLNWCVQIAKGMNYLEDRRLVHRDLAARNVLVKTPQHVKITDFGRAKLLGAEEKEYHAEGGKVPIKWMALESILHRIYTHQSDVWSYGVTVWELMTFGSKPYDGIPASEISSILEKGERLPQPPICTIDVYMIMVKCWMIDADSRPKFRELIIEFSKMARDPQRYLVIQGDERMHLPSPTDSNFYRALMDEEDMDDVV
Method: (§1) Exemplary compounds were tested for ability to bind to EGFR WT (amino acids 669-1011, Accession Number NP_005219.2) or EGFR T790M, L858R (amino acids 669-1011 Accession Number NP_005219.2) expressed from bacteria or mammalian cells, respectively. Compounds were tested using the KdELECT assay at Eurofins Discovery.
(§2) Kinase-tagged T7 phage strains were prepared in an E. coli host derived from the BL21 strain. E. coli were grown to log-phase and infected with T7 phage and incubated with shaking at 32° C. until lysis. The lysates were centrifuged and filtered to remove cell debris. The remaining kinases were produced in HEK-293 cells and subsequently tagged with DNA for qPCR detection. Streptavidin-coated magnetic beads were treated with biotinylated small molecule ligands for 30 minutes at room temperature to generate affinity resins for kinase assays. The liganded beads were blocked with excess biotin and washed with blocking buffer (SeaBlock (Pierce), 1% BSA, 0.05% Tween 20, 1 mM DTT) to remove unbound ligand and to reduce non-specific binding. Binding reactions were assembled by combining kinases, liganded affinity beads, and test compounds in 1x binding buffer (20% SeaBlock, 0.17× PBS, 0.05% Tween 20, 6 mM DTT). Test compounds were prepared as 111× stocks in 100% DMSO. Kd values were determined using an 11-point 3-fold compound dilution series with three DMSO control points. All compounds for Kd measurements are distributed by acoustic transfer (non-contact dispensing) in 100% DMSO. The compounds were then diluted directly into the assays such that the final concentration of DMSO was 0.9%. All reactions performed in polypropylene 384-well plate. Each was a final volume of 0.02 mL. The assay plates were incubated at room temperature with shaking for 1 hour and the affinity beads were washed with wash buffer (1× PBS, 0.05% Tween 20). The beads were then re-suspended in elution buffer (1× PBS, 0.05% Tween 20, 0.5 μM nonbiotinylated affinity ligand) and incubated at room temperature with shaking for 30 minutes. The kinase concentration in the eluates was measured by qPCR.

CCNK = assay: Payload release assay (DC50 readout), CCNK degradation in the presence of recombinant target protein; type: cell-based; conditions: II-series and V-4 (CCNK readout inferred)
Method: Exemplary compounds were tested for ability to cause degradation of CCNK or GSPT1 in the presence of recombinant target protein.
HEK293 LgBiT/GSPT1 HiBiT CRISPR Knock-in cells (Promega) were cultured in DMEM (Gibco 11995), supplemented with 10% Heat-inactivated FBS (Gibco A38400-01) and 1% Penicillin/Streptomycin (Gibco 15140-122) and 200 Vg/ml Hygromycin B (Gibco 10-687-010) at 37° C. with 5% CO2 in a humidified tissue culture incubator. HEK293 LgBiT/CCNK HiBiT cells (in-house, described above) were cultured in DMEM (Gibco 11995), supplemented with 10% Heat-inactivated FBS (Gibco A38400-01) and 1% Penicillin/Streptomycin (Gibco 15140-122) 200 Vg/ml Hygromycin B (Gibco 10-687-010), and 1 Vg/ml Puromycin Dihydrochloride (Thermo A1113803) at 37° C. with 5% CO2 in a humidified tissue culture incubator. Cells were seeded (1000 cells/well for HEK293 LgBiT/GSPT1 HiBiT cells or 3000 cells/well for HEK293 LgBiT/CCNK HiBiT cells) 384-well, tissue culture-treated white plates (Perkin Elmer 6007680) in 10 μL media lacking selection for 18-24 hours. Plates were spun at 300 g for 30 seconds and stored in the incubator overnight. After 24 hours, a 5 μL aliquot of recombinant target protein (final concentration of either 5 μM KRAS amino acids 1-169, C51S, C80L, C118S, G12C or 3 μM EGFR amino acids 696-1022 or 3 μM EGFR amino acids 696-1022, T790M, L858R) was added to wells, followed immediately by a 5 μL aliquot of 4× compound-containing medium supplemented with Endurazine Substrate (Promega N2570) was added in each well, at a final top concentration of 10 μM test compound and 0.5× Endurazine, with 4-fold dilutions, using DMSO alone as a negative control. Plates were then spun at 300×g for 3 minutes again and cultured at 37° C. with 5% CO2. After 6 hours the plate was read on Envision MultiMode Plate Reader 2105 (Perkin Elmer) to measure luminescence signal. Data was normalized to DMSO treated cell wells. A four-parameter non-linear regression curve fit was applied to dose-response data in Prism to determine the half maximal growth inhibitory concentration (GI50) of each compound.

[2] = molecular target: T3, EGFR WT (amino acids 669-1011) (Homo sapiens, UniProt P00533); assay: KdELECT binding assay, EGFR WT
T3 construct: purchased Eurofins Discovery (KdELECT); host or cells: bacteria (E. coli BL21-derived, T7 phage)
T3 sequence (P00533 669-1011): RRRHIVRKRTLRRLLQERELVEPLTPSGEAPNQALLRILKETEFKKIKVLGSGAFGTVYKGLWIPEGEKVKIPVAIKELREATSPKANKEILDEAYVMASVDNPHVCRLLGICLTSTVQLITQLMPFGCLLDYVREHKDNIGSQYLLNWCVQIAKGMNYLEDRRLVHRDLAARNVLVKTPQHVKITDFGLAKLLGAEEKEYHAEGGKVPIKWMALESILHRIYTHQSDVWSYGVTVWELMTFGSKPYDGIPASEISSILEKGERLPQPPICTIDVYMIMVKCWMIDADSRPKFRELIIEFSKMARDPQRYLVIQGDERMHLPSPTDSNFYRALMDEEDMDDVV
Method: as §1, §2

[3] = system: HEK293 cells (ATCC CRL-1573); assay: Cellular growth inhibition assay, HEK293 cells (Example 16); type: cell-based; conditions: Homo sapiens, 72 hours, CellTiter-Glo 2.0
Method: (§3) Exemplary compounds were tested for ability to inhibit the proliferation of HEK293 cells (ATCC CRL-1573) and HeLa cells (ATCC CCL-2).
(§4) HEK293 and HeLa cells were cultured in DMEM (Gibco 11995), supplemented with 10% Heat-inactivated FBS (Gibco A38400-01) and 1% Penicillin/Streptomycin (Gibco 15140-122) at 37° C. with 5% CO2 in a humidified tissue culture incubator. Cells were seeded at 500 cells/well in 384-well, Poly-D-lysine-treated blackplates (Perkin Elmer 6007710) in 25 μL media lacking selection for 18-24 hours. Plates were spun at 300 g for 30 seconds and stored in the incubator overnight. After 24 hours, a 25 μL aliquot of compound-containing medium was added in each well, at a final top concentration of 10 μM test compound, with 3-fold dilutions, using DMSO alone as a negative control. Plates were then spun at 300×g for 3 minutes again and cultured at 37° C. with 5% CO2. After 72 hours, cell viability was quantified with CellTiter-Glo 2.0 (Promega). After equilibrating cell plates at room temperature for 30 minutes, 25 μL CellTiter-Glo 2.0 reagent was dispensed into each well. Plates were mixed on a shaker for 2 minutes at 500 rpm, followed by a 10-minute incubation at room temperature. Luminescence readings were measured with an EnVision Plate Reader (Perkin Elmer). Data was normalized to DMSO treated cell wells. A four-parameter non-linear regression curve fit was applied to dose-response data in Prism to determine the half maximal growth inhibitory concentration (GI50) of each compound.

HeLa cells (ATCC CCL-2) = assay: Cellular growth inhibition assay, HeLa cells (Example 16); type: cell-based; conditions: Homo sapiens, 72 hours, CellTiter-Glo 2.0
Method: as §3, §4

T1 sequence (Q06187 387-659): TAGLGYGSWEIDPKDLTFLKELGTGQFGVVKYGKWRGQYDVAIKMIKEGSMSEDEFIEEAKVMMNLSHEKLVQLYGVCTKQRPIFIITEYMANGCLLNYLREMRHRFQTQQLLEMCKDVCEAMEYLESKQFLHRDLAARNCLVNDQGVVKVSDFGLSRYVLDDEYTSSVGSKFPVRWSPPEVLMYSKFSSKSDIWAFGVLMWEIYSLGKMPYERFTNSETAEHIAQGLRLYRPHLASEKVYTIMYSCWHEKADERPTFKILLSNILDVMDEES

Compound | Concentration of Effector Protein Ligand (BTK; Matrix Buffer + Protein (BTK), Time 0 h) [nM] | Concentration of Effector Protein Ligand (BTK; Matrix Buffer + Protein (BTK), Time 1 h) [nM] | Concentration of Effector Protein Ligand (BTK; Matrix Buffer + Protein (BTK), Time 4 h) [nM] | Concentration of Effector Protein Ligand (BTK; Matrix Buffer + Protein (BTK), Time 22 h) [nM] | Concentration of Effector Protein Ligand (BTK; Matrix Buffer, Time 0 h) [nM] | Concentration of Effector Protein Ligand (BTK; Matrix Buffer, Time 1 h) [nM] | Concentration of Effector Protein Ligand (BTK; Matrix Buffer, Time 4 h) [nM] | Concentration of Effector Protein Ligand (BTK; Matrix Buffer, Time 22 h) [nM] | Kd [1] [µM] | DC50 (CCNK; 0 μM recombinant EGFR T790M L858R, read-out: DC50 at 0 μM EGFR T790M L858R) [µM] | DC50 (CCNK; 0 μM recombinant EGFR WT, read-out: DC50 at 0 μM EGFR WT) [µM] | Kd [2] [µM] | GI50 [3] [µM] | GI50 (HeLa cells (ATCC CCL-2)) [µM]
C=C(COc1ccc2nc3c(c(CC)c2c1)Cn1c-3cc2c(c1=O)COC(=O)[C@]2(O)CC)C(=O)N1CCC[C@@H](n2nc(-c3ccc(Oc4ccccc4)cc3)c3c(N)ncnc32)C1 [Compound A1-6] | 790 | 797 | 641 | 770 | 104 | 92.6 | 66.4 | 86.4 | – | – | – | – | – | –
C=C(Cn1c(CNc2nc(N3CCN(C)CC3)nc3c(Br)cnn23)nc2c(F)c(F)ccc21)C(=O)N[C@@H]1CN(c2nc(Nc3cn(C)nc3OC)c3ncn(C)c3n2)C[C@H]1F [II-182] | – | – | – | – | – | – | – | – | > 2.5 | 5 to 10 | 5 to 10 | > 2.5 | 1.5 to 10 | 1.5 to 10
